# Reference: patent US4540513A, “Decapeptide having gonadotropin releasing activity” (Kanegafuchi Kagaku Kogyo Kabushiki Kaisha, priority 1984, dated 1985)
# Where a SMILES comes first, the peptide text is derived from it. [ ]: non-standard residue; d: D form. pGlu = O=C1CC[C@@H](C(=O)O)N1
# System: rat prehypophysis (anterior pituitary) cells
# Test: Gonadotropin (LH and FSH) releasing activity, monolayer culture of rat prehypophysis cells, radioimmunoassay of the supernatant
# Assay type: cell-based
# Method: The synthetic or natural decapeptides prepared in Example 1 was dissolved in 1N acetic acid so that the concentration was 1 μg/ml.
# A series of half dilutions from 10.24 ng/ml to 10 pg/ml was prepared from the above solution.
# Each sample solution in the series was dried in a rotary evaporator by evaporating 1N acetic acid.
# The releasing activity was measured by monolayer culture method using rat prehypohysis cells. After rat prehypophysis cells were disperesed with tripsin and Viokase, the dispersed cells were washed well with a culture medium [Dulbecco's modified Eagle's medium (DMEM) containing 100 unit/ml gentamicin, 2.5 μ/ml fungizone, 5% horse serum, 5% human serum, and 2.5% fetal bovine serum]. The cells were inoculated at a density of 5×10^4 cells in each well of a plastic culture tray having 96 wells and precultured for 4 days.
# Samples to be tested for gonadotropin releasing activity were added to the fifth-day culture and the culture was further incubated for 24 hours at 37° C. in the presence of 5% CO2.
# On the fifth day of the culture the above dried peptide sampls were dissolved in 0.5 ml of the Dulbecco's modified Eagle's medium (DMEM), 0.2 ml of aligot was aded to each well, and the cells were cultured in the well for additional 24 hours.
# After the culture, the supernatent of the culture was withdrawn and assayed for LH and FSH with the radio imunoassay kit provided by NIH.
# [1] = 24 hours incubation, LH and FSH by radioimmunoassay
compound,measurement,setting,value
"NC(=O)CNC(=O)[C@@H]1CCCN1C(=O)[C@H](Cc1ccc(O)cc1)NC(=O)[C@H](Cc1c[nH]c2ccccc12)NC(=O)CNC(=O)[C@H](Cc1c[nH]cn1)NC(=O)[C@H](CO)NC(=O)[C@H](Cc1c[nH]c2ccccc12)NC(=O)[C@H](Cc1c[nH]cn1)NC(=O)[C@@H]1CCC(=O)N1 [decapeptide of the present invention, pGlu-His-Trp-Ser-His-Gly-Trp-Tyr-Pro-Gly-NH2] ([pGlu]HWSHGWYPG-NH2)",lowest detectable amount,[1],160 pg/mL
same,specific activity at the half maximum dose,[1],3.1 ng/mL
same,"LH and FSH releasing activity, specific activity relative to conventional LH-RH",% of the conventional LH-RH in specific activity,30%
same,gonadotropin-releasing potency relative to mammalian LHRH,"bioassay with rat anterior pituitary cells, % of that of mammalian LHRH",about 32%
same,gonadotropin-releasing potency relative to chicken LHRH,"bioassay with rat anterior pituitary cells, times more potent than chicken LHRH",8 times
same,LH releasing activity at the maximum dose relative to control,"maximum dose, bigger than that of the control",about 3.5 times
same,LH releasing activity at the maximum dose,"maximum dose, control 200 ng/ml LH",3200 ng/ml LH
same,activity of the purified relative to the starting material,"purified from chicken hypothalamus extract, times more than the starting material",about 15×10^8 times
